From patent US12527773B2, “Flavi-block: a pan-flavivirus inhibitor” (Baden-Württemberg Stiftung GmbH, priority 2020, dated 2026)
Where two headings read alike, the source gives them in different places.

Experiments:
[1] = system: DENV2; test: RT-qPCR analysis of virus genomes, DENV2; assay type: cell-based; conditions: Dengue virus
Method: Vero cells were infected with DENV1-4 at an MOI of 1 for 2 h (post infection, p.i., (A)), after which virus was removed, and fresh maintenance medium containing 2% FCS together with the indicated concentration of C10 added. For co-treat condition (c.t., (B)), Vero cells were infected with DENV1-4 at an MOI of 1 in the presence of C10 for 2 h, followed by removal of the virus/C10 inoculums, and addition of fresh 2% fetal calf serum maintenance medium. […] Results represent the mean ±SD for duplicate wells from a single assay, representative of 2 independent experiments (cf. Tables 2A and 2B, infra, for pooled data).
(§1) Viral RNA was extracted using Isolate II RNA extraction kit (Bioline), and the absolute number of RNA copies determined by Taqman One Step RT-qPCR (Applied Biosystems) by extrapolation from a standard curve generated from in vitro—transcribed virus RNA.
(§2) It was decided to test the ability of C10 to inhibit the flaviviruses DENV1-4, KUNV and ZIKV, in addition to the paramyxovirus RSV, as a control.

[2] = system: Huh7.5 cells; test: Viability of treated Huh7.5 cells by MTT assay; assay type: cell-based; conditions: 10 μM, 24 h after treatment
Method: (§3) Huh7.5 cells were electroporated with HCV-JC1-Luc (reporter virus expressing luciferase via IRES) RNA and treated 24 h later with the best 20 candidates (10 μM). After another 24 h the supernatants were harvested. To quantify infectious particles, untreated Huh7.5 cells were inoculated with the supernatants and 36 h later the luciferase activity was measured. The viability of the same cells was determined 24 h after treatment with inhibitor by MTT assay (tetrazolium salt which is reduced in metabolically active cells resulting in a color change). For both parameters, 100% corresponds to the release or viability of the untreated or DMSO treated control. uninf.=not infected; untr.=not treated. Mean values and SD were derived from n =3 independent infections.
The viability of the same cells was determined 24 h after treatment with the candidate substances by MTT assay (tetrazolium salt reduced in metabolically active cells resulting in a color change) (FIG. 2). For both parameters, 100% of release or viability corresponds to the untreated or DMSO-treated control.

[3] = system: RSV; test: IC50 in established virological assays (Table 1), RSV; assay type: cell-based; conditions: human respiratory syncytial virus
Method: In summary, a set of C10 derivatives (FIG. 12) was designed, synthesized and tested against HCV (which is considered as an established system to monitor drug effects against Flaviviridae) as well as DENV for comprehensive structure-activity relationship (SAR) analysis and target validation. IC50 and CC50 values for compound C10 were determined in established virological assays (Table 1). […] Further, said experiments underline the specificity of compound C10 for flaviviruses.

[4] = system: KUNV; test: RT-qPCR analysis of virus genomes, KUNV; assay type: cell-based, Kunjin virus; conditions: West Nile virus
Method: Vero cells were infected with KUNV at an MOI of 1 for 2 h (post infection), after which virus was removed, and fresh maintenance medium containing 2% FCS together with the indicated concentration of C10 added. For co-treat condition, Vero cells were infected with KUNV at an MOI of 1 in the presence of C10 for 2 h, followed by removal of the virus/C10 inoculums, and addition of fresh 2% fetal calf serum maintenance medium.
as §1, §2

[5] = Pharmacokinetic study in Balb/c mice, peroral administration; assay type: in vivo; conditions: for Plasma concentration, Group A-D: single animals
Method: Study design, animal selection, handling and treatment were all in accordance with the study protocols and institutional animal care and use guidelines. Male Balb/c mice (9-10 weeks old, body weight 22.3 to 38.1 g and average body weight across all groups 31.4 g, SD=3.20 g) were used in this study. The animals were randomly assigned to the treatment groups before the pharmacokinetic study; all animals were fasted for 4 h before dosing. Six time points for PO (15, 30, 60, 120, 240 and 360 min) and IV (5, 15, 30, 60, 120 and 240 min) routes were used in this pharmacokinetic study. Each of the PO and IV time point treatment groups included 4 animals. There was also control group of 2 animals. Dosing was done according to the treatment schedules outlined in Table 3. Mice were injected IV with 2,2,2-tribromoethanol at the dose of 150 mg/kg prior to taking blood. Blood collection was performed from the orbital sinus in microtainers containing K2EDTA. Animals were sacrificed by cervical dislocation after blood samples collection. All samples were immediately prepared, flash-frozen and stored at −70° C. until subsequent bioanalysis.
Samples Processing Plasma samples ([…]) were mixed with […] of IS solution. After mixing by pipetting and centrifuging for 4 min at 6,000 rpm, […] of each supernatant was injected into LC-MS/MS system. Solution of compound IS-02-03 (200 ng/ml in acetonitrile-methanol mixture, 1:1, v/v) was used as internal standard (IS) for quantification of C10 in plasma samples. Samples Analysis The concentrations of C10 were determined using high performance liquid chromatography/tandem mass spectrometry (HPLC-MS/MS). Shimadzu H PLC system comprised of 2 isocratic pumps LC-10Advp, an autosampler SIL-HTc, a sub-controller FCV-14AH and a degasser DGU-14A. Mass spectrometric analysis was performed using an API 3000 (triple-quadrupole) instrument from AB Sciex (Canada) with an electro-spray (ESI) interface. The data acquisition and system control was performed using Analyst 1.5.2 software from AB Sciex. HPLC-MS/MS Conditions
The pharmacokinetic data analysis was performed using non-compartmental, bolus injection or extravascular input analysis models in WinNonlin 5.2 (PharSight). Data below LLOQ were presented as missing to improve validity of T1/2 calculations. No outlier data points were removed from calculations. The bioavailability for the peroral route was calculated as: […]

[6] = system: HCV-JC1-Luc; test: Validation of antiviral effects of 20 hits: release of infectious HCV-JC1-Luc particles from Huh7.5 cells; assay type: cell-based, Hepatitis C virus; conditions: 10 μM, among the best 20 candidates
Method: as §3
Huh7.5 hepatocellular carcinoma cells were electroporated with HCV-JC1-Luc (reporter virus expressing luciferase via IRES) RNA and treated 24 h later with the best 20 candidates (10 μM) identified in Example 1. After another 24 h, the supernatants were harvested. To quantify infectious particles, untreated Huh7.5 cells were inoculated with the supernatants and luciferase activity was measured 36 h later (FIG. 2).

Compound: CCN1/C(=C\C=C\c2sc3cc(NC(C)=O)ccc3[n+]2CC)Sc2cc(NC(C)=O)ccc21.[I-] [C10, 6-acetamido-2-((1E,3E)-3-(6-acetamido-3-ethylbenzo[d]thiazol-2(3H)-ylidene)prop-1-en-1-yl)-3-ethylbenzo[d]thiazol-3-ium iodide]
- EC50 ([1]; DENV2, read-out: EC50 from RT-qPCR analysis, DENV2, c.t.): 200 nM
- EC50 ([1]; DENV2, read-out: EC50 from RT-qPCR analysis, DENV2, p.i.): 810 ± 480 nM
- cell viability (MTT) [2]: no negative effect on cell viability
- IC50 [3]: 4300 nM
- EC50 ([4]; read-out: EC50 from RT-qPCR analysis, KUNV, c.t.): 310 ± 180 nM
- EC50 ([4]; read-out: EC50 from RT-qPCR analysis, KUNV, p.i.): 1680 ± 640 nM
- oral bioavailability ([5]; PO 10 mg/kg versus IV 5 mg/kg): zero
- Plasma concentration, Mean ([5]; PO 10 mg/kg, 15 min): 0 ng(ml)
- Plasma concentration, Group A-D ([5]; PO 10 mg/kg, 15 min, below LLOQ 10 ng/ml designated as zero): 0 ng(ml)
- Plasma concentration, Mean ([5]; PO 10 mg/kg, 30 min): 0 ng(ml)
- Plasma concentration, Group A-D ([5]; PO 10 mg/kg, 30 min, below LLOQ designated as zero): 0 ng(ml)
- Plasma concentration, Mean ([5]; PO 10 mg/kg, 60 min): 0 ng(ml)
- Plasma concentration, Group A-D ([5]; PO 10 mg/kg, 60 min, below LLOQ designated as zero): 0 ng(ml)
- Plasma concentration, Mean ([5]; PO 10 mg/kg, 120 min): 0 ng(ml)
- Plasma concentration, Group A-D ([5]; PO 10 mg/kg, 120 min, below LLOQ designated as zero): 0 ng(ml)
- Plasma concentration, Mean ([5]; PO 10 mg/kg, 240 min): 0 ng(ml)
- Plasma concentration, Group A-D ([5]; PO 10 mg/kg, 240 min, below LLOQ designated as zero): 0 ng(ml)
- Plasma concentration, Mean ([5]; PO 10 mg/kg, 360 min): 0 ng(ml)
- Plasma concentration, Group A-D ([5]; PO 10 mg/kg, 360 min, below LLOQ designated as zero): 0 ng(ml)
- plasma levels following PO dosing ([5]; PO 10 mg/kg, LLOQ 10 ng/ml): below the lower limit of quantitation
- antiviral activity (release of infectious particles) [6]: highest antiviral activity
